According to the NIST ThermoML archive (doi:10.1016/j.jct.2016.10.023):

Test: xn = mol fraction of the nth substance listed
Conditions: Constant-volume piezometry

CCCCC [pentane] + CCCO
Conditions	mass density [kg/m3]
503.15 K, 5980 kPa, Fluid (supercritical or subcritical phases), x1 = 0.8	288.67
503.15 K, 6051 kPa, Fluid (supercritical or subcritical phases), x1 = 0.9	301.99
503.15 K, 6149 kPa, Fluid (supercritical or subcritical phases), x1 = 0.8	299.5
503.15 K, 6295 kPa, Fluid (supercritical or subcritical phases), x1 = 0.9	312.64
503.15 K, 6413 kPa, Liquid, x1 = 0.2	470.91
503.15 K, 6490 kPa, Fluid (supercritical or subcritical phases), x1 = 0.5	373.27
503.15 K, 6551 kPa, Fluid (supercritical or subcritical phases), x1 = 0.8	315.69
503.15 K, 6924 kPa, Fluid (supercritical or subcritical phases), x1 = 0.9	334.38
503.15 K, 7052 kPa, Fluid (supercritical or subcritical phases), x1 = 0.8	334.2
503.15 K, 7423 kPa, Fluid (supercritical or subcritical phases), x1 = 0.8	345.74
503.15 K, 7481 kPa, Fluid (supercritical or subcritical phases), x1 = 0.5	398.56
503.15 K, 7825 kPa, Fluid (supercritical or subcritical phases), x1 = 0.9	354.5
503.15 K, 8266 kPa, Fluid (supercritical or subcritical phases), x1 = 0.8	362.32
503.15 K, 8559 kPa, Fluid (supercritical or subcritical phases), x1 = 0.5	417.68
503.15 K, 10489 kPa, Fluid (supercritical or subcritical phases), x1 = 0.5	441.45
503.15 K, 10609 kPa, Liquid, x1 = 0.2	510.19
503.15 K, 11537 kPa, Fluid (supercritical or subcritical phases), x1 = 0.5	451.78
503.15 K, 12022 kPa, Fluid (supercritical or subcritical phases), x1 = 0.9	407.75
503.15 K, 12689 kPa, Fluid (supercritical or subcritical phases), x1 = 0.8	418.68
503.15 K, 14223 kPa, Fluid (supercritical or subcritical phases), x1 = 0.5	468.71
503.15 K, 18302 kPa, Liquid, x1 = 0.2	547.72
503.15 K, 21559 kPa, Fluid (supercritical or subcritical phases), x1 = 0.8	467.26
503.15 K, 26707 kPa, Fluid (supercritical or subcritical phases), x1 = 0.5	519.99
503.15 K, 30356 kPa, Fluid (supercritical or subcritical phases), x1 = 0.8	496.72
503.15 K, 30587 kPa, Liquid, x1 = 0.2	582.08
503.15 K, 37782 kPa, Liquid, x1 = 0.2	595.68
503.15 K, 41722 kPa, Fluid (supercritical or subcritical phases), x1 = 0.8	521.26
504.15 K, 4315 kPa, Liquid, x1 = 0.2	419.14
508.15 K, 4020 kPa, Gas, x1 = 0.2	114.44
508.15 K, 4961 kPa, Liquid, x1 = 0.2	419.05
510.15 K, 4548 kPa, Liquid, x1 = 0.2	383.7
511.15 K, 4773 kPa, Liquid, x1 = 0.2	391.53
513.15 K, 933 kPa, Gas, x1 = 0.5	15.53
513.15 K, 1283 kPa, Gas, x1 = 0.8	22.54
513.15 K, 1508 kPa, Gas, x1 = 0.2	24.94
513.15 K, 1686 kPa, Gas, x1 = 0.5	30
513.15 K, 1923 kPa, Gas, x1 = 0.8	36.71
513.15 K, 2226 kPa, Gas, x1 = 0.5	40.51
513.15 K, 2615 kPa, Gas, x1 = 0.5	51.12
513.15 K, 2796 kPa, Gas, x1 = 0.8	58.44
513.15 K, 2974 kPa, Gas, x1 = 0.2	53.03
513.15 K, 3284 kPa, Gas, x1 = 0.5	67.55
513.15 K, 3295 kPa, Gas, x1 = 0.8	73.83
513.15 K, 3462 kPa, Gas, x1 = 0.5	72.63
513.15 K, 3488 kPa, Gas, x1 = 0.9	83.42
513.15 K, 3816 kPa, Gas, x1 = 0.2	91.46
513.15 K, 3844 kPa, Gas, x1 = 0.5	88.95
513.15 K, 4033 kPa, Gas, x1 = 0.5	95.89
513.15 K, 4156 kPa, Fluid (supercritical or subcritical phases), x1 = 0.8	106.45
513.15 K, 4165 kPa, Gas, x1 = 0.2	114.41
513.15 K, 4349 kPa, Fluid (supercritical or subcritical phases), x1 = 0.9	123.41
513.15 K, 4538 kPa, Fluid (supercritical or subcritical phases), x1 = 0.9	134.18
513.15 K, 4567 kPa, Fluid (supercritical or subcritical phases), x1 = 0.5	121.95
513.15 K, 4703 kPa, Liquid, x1 = 0.2	350.76
513.15 K, 4837 kPa, Fluid (supercritical or subcritical phases), x1 = 0.5	144.18
513.15 K, 4850 kPa, Fluid (supercritical or subcritical phases), x1 = 0.8	140.37
513.15 K, 4865 kPa, Liquid, x1 = 0.2	378.83
513.15 K, 4965 kPa, Fluid (supercritical or subcritical phases), x1 = 0.9	164.03
513.15 K, 4968 kPa, Fluid (supercritical or subcritical phases), x1 = 0.5	154.56
513.15 K, 4968 kPa, Liquid, x1 = 0.2	383.64
513.15 K, 5032 kPa, Fluid (supercritical or subcritical phases), x1 = 0.8	156.12
513.15 K, 5068 kPa, Fluid (supercritical or subcritical phases), x1 = 0.2	391.49
513.15 K, 5068 kPa, Liquid, x1 = 0.2	391.49
513.15 K, 5086 kPa, Fluid (supercritical or subcritical phases), x1 = 0.5	165.22
513.15 K, 5197 kPa, Fluid (supercritical or subcritical phases), x1 = 0.8	169.87
513.15 K, 5255 kPa, Fluid (supercritical or subcritical phases), x1 = 0.5	182.94
513.15 K, 5265 kPa, Fluid (supercritical or subcritical phases), x1 = 0.8	176.11
513.15 K, 5295 kPa, Fluid (supercritical or subcritical phases), x1 = 0.9	189.54
513.15 K, 5344 kPa, Fluid (supercritical or subcritical phases), x1 = 0.8	180.91
513.15 K, 5373 kPa, Fluid (supercritical or subcritical phases), x1 = 0.5	200.49
513.15 K, 5432 kPa, Fluid (supercritical or subcritical phases), x1 = 0.5	210.33
513.15 K, 5454 kPa, Fluid (supercritical or subcritical phases), x1 = 0.9	202.47
513.15 K, 5473 kPa, Fluid (supercritical or subcritical phases), x1 = 0.8	193.25
513.15 K, 5506 kPa, Fluid (supercritical or subcritical phases), x1 = 0.5	224.16
513.15 K, 5598 kPa, Fluid (supercritical or subcritical phases), x1 = 0.5	241.62
513.15 K, 5618 kPa, Fluid (supercritical or subcritical phases), x1 = 0.5	250.82
513.15 K, 5669 kPa, Fluid (supercritical or subcritical phases), x1 = 0.9	220.79
513.15 K, 5677 kPa, Fluid (supercritical or subcritical phases), x1 = 0.5	259.87
513.15 K, 5710 kPa, Fluid (supercritical or subcritical phases), x1 = 0.8	213.96
513.15 K, 5746 kPa, Fluid (supercritical or subcritical phases), x1 = 0.5	270.69
513.15 K, 5776 kPa, Fluid (supercritical or subcritical phases), x1 = 0.8	219.73
513.15 K, 5792 kPa, Liquid, x1 = 0.2	418.94
513.15 K, 5837 kPa, Fluid (supercritical or subcritical phases), x1 = 0.9	233.18
513.15 K, 5858 kPa, Fluid (supercritical or subcritical phases), x1 = 0.5	282.52
513.15 K, 5880 kPa, Fluid (supercritical or subcritical phases), x1 = 0.9	236.64
513.15 K, 5929 kPa, Fluid (supercritical or subcritical phases), x1 = 0.9	241.05
513.15 K, 5974 kPa, Fluid (supercritical or subcritical phases), x1 = 0.9	244.36
513.15 K, 5983 kPa, Fluid (supercritical or subcritical phases), x1 = 0.8	234.82
513.15 K, 6090 kPa, Fluid (supercritical or subcritical phases), x1 = 0.5	298.82
513.15 K, 6119 kPa, Fluid (supercritical or subcritical phases), x1 = 0.8	245.46
513.15 K, 6286 kPa, Fluid (supercritical or subcritical phases), x1 = 0.8	258.7
513.15 K, 6470 kPa, Fluid (supercritical or subcritical phases), x1 = 0.5	320.16
513.15 K, 6531 kPa, Fluid (supercritical or subcritical phases), x1 = 0.8	272.67
513.15 K, 6531 kPa, Fluid (supercritical or subcritical phases), x1 = 0.9	282.15
513.15 K, 6559 kPa, Fluid (supercritical or subcritical phases), x1 = 0.5	325.44
513.15 K, 6787 kPa, Fluid (supercritical or subcritical phases), x1 = 0.8	288.53
513.15 K, 6884 kPa, Fluid (supercritical or subcritical phases), x1 = 0.9	301.84
513.15 K, 6962 kPa, Fluid (supercritical or subcritical phases), x1 = 0.5	344.73
513.15 K, 7033 kPa, Fluid (supercritical or subcritical phases), x1 = 0.8	299.35
513.15 K, 7191 kPa, Fluid (supercritical or subcritical phases), x1 = 0.9	312.49
513.15 K, 7508 kPa, Fluid (supercritical or subcritical phases), x1 = 0.8	315.53
513.15 K, 7785 kPa, Fluid (supercritical or subcritical phases), x1 = 0.5	373.08
513.15 K, 7943 kPa, Fluid (supercritical or subcritical phases), x1 = 0.9	334.21
513.15 K, 8099 kPa, Fluid (supercritical or subcritical phases), x1 = 0.8	334.03
513.15 K, 8570 kPa, Fluid (supercritical or subcritical phases), x1 = 0.8	345.56
513.15 K, 8766 kPa, Liquid, x1 = 0.2	470.65
513.15 K, 8986 kPa, Fluid (supercritical or subcritical phases), x1 = 0.5	398.35
513.15 K, 9031 kPa, Fluid (supercritical or subcritical phases), x1 = 0.9	354.32
513.15 K, 9551 kPa, Fluid (supercritical or subcritical phases), x1 = 0.8	362.13
513.15 K, 10333 kPa, Fluid (supercritical or subcritical phases), x1 = 0.5	417.46
513.15 K, 12509 kPa, Fluid (supercritical or subcritical phases), x1 = 0.5	441.21
513.15 K, 13550 kPa, Fluid (supercritical or subcritical phases), x1 = 0.2	509.9
513.15 K, 13550 kPa, Liquid, x1 = 0.2	509.9
513.15 K, 13634 kPa, Fluid (supercritical or subcritical phases), x1 = 0.5	451.54
513.15 K, 13786 kPa, Fluid (supercritical or subcritical phases), x1 = 0.9	407.53
513.15 K, 14551 kPa, Fluid (supercritical or subcritical phases), x1 = 0.8	418.46
513.15 K, 16655 kPa, Fluid (supercritical or subcritical phases), x1 = 0.5	468.45
513.15 K, 22117 kPa, Liquid, x1 = 0.2	547.38
513.15 K, 24001 kPa, Fluid (supercritical or subcritical phases), x1 = 0.8	467
513.15 K, 30101 kPa, Fluid (supercritical or subcritical phases), x1 = 0.5	519.68
513.15 K, 33469 kPa, Fluid (supercritical or subcritical phases), x1 = 0.8	496.43
513.15 K, 35193 kPa, Liquid, x1 = 0.2	581.71
513.15 K, 42801 kPa, Liquid, x1 = 0.2	595.3
514.15 K, 4473 kPa, Gas, x1 = 0.2	150.41
514.15 K, 4778 kPa, Liquid, x1 = 0.2	341.42
514.15 K, 4795 kPa, Liquid, x1 = 0.2	350.74
515.15 K, 4522 kPa, Gas, x1 = 0.2	150.4
515.15 K, 4645 kPa, Fluid (supercritical or subcritical phases), x1 = 0.2	175.68
515.15 K, 4818 kPa, Fluid (supercritical or subcritical phases), x1 = 0.2	318.9
516.15 K, 4838 kPa, Fluid (supercritical or subcritical phases), x1 = 0.2	272.45
516.15 K, 4852 kPa, Fluid (supercritical or subcritical phases), x1 = 0.2	290.64
516.15 K, 4872 kPa, Fluid (supercritical or subcritical phases), x1 = 0.2	306.93
516.15 K, 4877 kPa, Fluid (supercritical or subcritical phases), x1 = 0.2	311.17
516.15 K, 4909 kPa, Fluid (supercritical or subcritical phases), x1 = 0.2	318.89
517.15 K, 4912 kPa, Fluid (supercritical or subcritical phases), x1 = 0.2	272.44
517.15 K, 4958 kPa, Fluid (supercritical or subcritical phases), x1 = 0.2	306.92

Liquid, x1 = 0.2
Conditions	mass density [kg/m3]
508.65 K	391.58
509.65 K	383.71
510.35 K	378.89
512.85 K	350.77
513.45 K	344.22
513.65 K	341.43
514.95 K	318.91
515.15 K	311.18
515.55 K	306.94
515.95 K	290.64
516.15 K	272.45
